Legend:
[1] = system: rabbit serum obtained by immunizing a rabbit with the SARS-CoV strain Frankfurt 1; type: binding; parameters: Binding of a rabbit serum to linear peptides / Binding of a rabbit serum to looped peptides / Rabbit serum linear peptides / Rabbit serum looped peptides / Binding of a rabbit serum to linear peptides of protein N of SARS-CoV Urbani (Rabbit serum linear peptides) / Binding of a rabbit serum to looped/cyclic peptides of protein N of SARS-CoV Urbani (Rabbit serum looped peptides): unit not given here
[2] = system: control sera (pooled serum of ten healthy LUMC hospital workers; commercial negative donor pooled serum from the Dutch bloodbank); type: binding, human; parameters: Binding of Control serum LUMC to linear peptides / Binding of Control serum Blood-bank to linear peptides / Binding of Control serum LUMC to looped peptides / Binding of Control Serum Blood-Bank to Looped peptides / Binding of Control serum LUMC to linear peptides of the protein M of SARS-CoV Urbani / Binding of Control serum Blood-bank to linear peptides of the protein M of SARS-CoV Urbani / Binding of Control serum LUMC to looped peptides of the protein M of SARS-CoV Urbani / Binding of Control Serum Blood-Bank to Looped peptides of the protein M of SARS-CoV Urbani: unit not given here
[3] = system: antibodies in sera from SARS patients (sera 1a, 1b, 2, 6, 37, 62, London, SARS-yellow, SARS-green); type: binding, human; parameters: Binding of serum 6 to linear peptides of protein X1 of SARS-CoV Urbani / Binding of serum 37 to linear peptides of protein X1 of SARS-CoV Urbani / Binding of serum 6 to looped/cyclic peptide (PEPSCAN-ELISA) / Binding of serum 37 to looped/cyclic peptide (PEPSCAN-ELISA) / Binding of serum 37 to looped/cyclic peptides of protein X1 of SARS-CoV Urbani / Binding of serum 6 to linear peptides of protein X2 / Binding of serum 37 to linear peptides of protein X2 / Binding of serum 37 to looped/cyclic peptides of protein X2 of SARS-CoV Urbani / Binding of serum 6 to linear peptides of protein M of SARS-CoV Urbani / Binding of serum 37 to linear peptides of protein M of SARS-CoV Urbani / Binding of serum 6 to looped/cyclic peptides of protein M of SARS-CoV Urbani / Binding of serum 37 to looped/cyclic peptides of protein M of SARS-CoV Urbani / Binding of serum 6 to linear peptides of protein X3 of SARS-CoV Urbani / Binding of serum 37 to linear peptides of protein X3 of SARS-CoV Urbani / Binding of serum 37 to looped/cyclic peptides of protein X3 of SARS-CoV Urbani / Binding of serum 6 to linear peptides of protein X4 of SARS-CoV Urbani / Binding of serum 37 to linear peptides of protein X4 of SARS-CoV Urbani / Binding of serum 37 to looped/cyclic peptides of protein X4 of SARS-CoV Urbani / Binding of serum 6 to linear peptides of protein X5 of SARS-CoV Urbani / Binding of serum 37 to linear peptides of protein X5 of SARS-CoV Urbani / Binding of serum 37 to looped/cyclic peptides of protein X5 of SARS-CoV Urbani / Binding of serum 6 to linear peptides of protein N of SARS-CoV Urbani / Binding of serum 37 to linear peptides of protein N of SARS-CoV Urbani / Binding of serum 6 to linear peptide (PEPSCAN-ELISA) / Binding of serum 1a to looped/cyclic peptides of protein N of SARS-CoV Urbani / Binding of serum 1b to looped/cyclic peptides of protein N of SARS-CoV Urbani / Binding of serum 2 to looped/cyclic peptides of protein N of SARS-CoV Urbani / Binding of serum 6 to looped/cyclic peptides of protein N of SARS-CoV Urbani / Binding of serum 37 to looped/cyclic peptides of protein N of SARS-CoV Urbani / Binding of serum 62 to looped/cyclic peptides of protein N of SARS-CoV Urbani / Binding of serum London to looped/cyclic peptides of protein N of SARS-CoV Urbani / Binding of serum SARS-green to looped/cyclic peptides of protein N of SARS-CoV Urbani: unit not given here

## WPVTLACFVLAAVYR
[1]
  Rabbit serum linear peptides: 0.2
  Rabbit serum looped peptides: 0.4
[2]
  Binding of Control Serum Blood-Bank to Looped peptides of the protein M of SARS-CoV Urbani: 0.8
  Binding of Control serum Blood-bank to linear peptides of the protein M of SARS-CoV Urbani: 0.7
  Binding of Control serum LUMC to linear peptides of the protein M of SARS-CoV Urbani: 0.5
  Binding of Control serum LUMC to looped peptides of the protein M of SARS-CoV Urbani: 1.2
[3]
  Binding of serum 1a to linear peptides of protein M of SARS-CoV Urbani: 0.7
  Binding of serum 1a to looped/cyclic peptides of protein M of SARS-CoV Urbani: 0.8
  Binding of serum 1b to linear peptides of protein M of SARS-CoV Urbani: 0.5
  Binding of serum 1b to looped/cyclic peptides of protein M of SARS-CoV Urbani: 0.6
  Binding of serum 2 to linear peptides of protein M of SARS-CoV Urbani: 0.4
  Binding of serum 2 to looped/cyclic peptides of protein M of SARS-CoV Urbani: 0.8
  Binding of serum 6 to linear peptides of protein M of SARS-CoV Urbani: 0.3
  Binding of serum 6 to looped/cyclic peptides of protein M of SARS-CoV Urbani: 1.1
  Binding of serum 37 to linear peptides of protein M of SARS-CoV Urbani: 0.4
  Binding of serum 37 to looped/cyclic peptides of protein M of SARS-CoV Urbani: 0.8
  Binding of serum 62 to linear peptides of protein M of SARS-CoV Urbani: 0.4
  Binding of serum 62 to looped/cyclic peptides of protein M of SARS-CoV Urbani: 1.1
  Binding of serum London to linear peptides of protein M of SARS-CoV Urbani: 0.3
  Binding of serum London to looped/cyclic peptides of protein M of SARS-CoV Urbani: 0.4
  Binding of serum SARS-green to linear peptides of protein M of SARS-CoV Urbani: 0.4
  Binding of serum SARS-green to looped/cyclic peptides of protein M of SARS-CoV Urbani: 0.2
  Binding of serum SARS-yellow to linear peptides of protein M of SARS-CoV Urbani: 0.2
  Binding of serum SARS-yellow to looped/cyclic peptides of protein M of SARS-CoV Urbani: 0.4

## YFVASFRLFARTRSM
[1]
  Rabbit serum linear peptides: 0.6
  Rabbit serum looped peptides: 0.8
[2]
  Binding of Control Serum Blood-Bank to Looped peptides of the protein M of SARS-CoV Urbani: 0.9
  Binding of Control serum Blood-bank to linear peptides of the protein M of SARS-CoV Urbani: 0.6
  Binding of Control serum LUMC to linear peptides of the protein M of SARS-CoV Urbani: 0.3
  Binding of Control serum LUMC to looped peptides of the protein M of SARS-CoV Urbani: 0.7
[3]
  Binding of serum 1a to linear peptides of protein M of SARS-CoV Urbani: 0.6
  Binding of serum 1b to linear peptides of protein M of SARS-CoV Urbani: 0.4
  Binding of serum 2 to linear peptides of protein M of SARS-CoV Urbani: 0.4
  Binding of serum 6 to linear peptides of protein M of SARS-CoV Urbani: 0.4
  Binding of serum 37 to linear peptides of protein M of SARS-CoV Urbani: 0.4
  Binding of serum 62 to linear peptides of protein M of SARS-CoV Urbani: 0.6
  Binding of serum London to linear peptides of protein M of SARS-CoV Urbani: 0.3
  Binding of serum SARS-green to linear peptides of protein M of SARS-CoV Urbani: 0.3
  Binding of serum SARS-yellow to linear peptides of protein M of SARS-CoV Urbani: 0.1
  Recognition of the peptide by sera of SARS-CoV infected individuals, and form (linear, looped/cyclic) in which it is recognized: recognized in looped/cyclic form

## YHITVSQIQLSLLKV
[1]
  Binding of a rabbit serum to linear peptides: 0.8
  Binding of a rabbit serum to looped peptides: 0.3
[2]
  Binding of Control Serum Blood-Bank to Looped peptides: 0.3
  Binding of Control serum Blood-bank to linear peptides: 0.6
  Binding of Control serum LUMC to linear peptides: 0.7
  Binding of Control serum LUMC to looped peptides: 0.4
[3]
  Binding of serum 1a to linear peptides of protein X2: 0.6
  Binding of serum 1a to looped/cyclic peptides of protein X2 of SARS-CoV Urbani: 0.4
  Binding of serum 1b to linear peptides of protein X2: 0.5
  Binding of serum 1b to looped/cyclic peptides of protein X2 of SARS-CoV Urbani: 0.4
  Binding of serum 2 to linear peptides of protein X2: 0.5
  Binding of serum 2 to looped/cyclic peptides of protein X2 of SARS-CoV Urbani: 0.4
  Binding of serum 6 to linear peptides of protein X2: 0.5
  Binding of serum 6 to looped/cyclic peptides of protein X2 of SARS-CoV Urbani: 0.1
  Binding of serum 37 to linear peptides of protein X2: 0.7
  Binding of serum 37 to looped/cyclic peptides of protein X2 of SARS-CoV Urbani: 0.4
  Binding of serum 62 to linear peptides of protein X2: 0.5
  Binding of serum 62 to looped/cyclic peptides of protein X2 of SARS-CoV Urbani: 0.5
  Binding of serum London to linear peptides of protein X2: 0.4
  Binding of serum London to looped/cyclic peptides of protein X2 of SARS-CoV Urbani: 0.2
  Binding of serum SARS-green to linear peptides of protein X2: 0.1
  Binding of serum SARS-green to looped/cyclic peptides of protein X2 of SARS-CoV Urbani: 0.3
  Binding of serum SARS-yellow to linear peptides of protein X2: 0.6
  Binding of serum SARS-yellow to looped/cyclic peptides of protein X2 of SARS-CoV Urbani: 0.4

Reference: patent US20070128217A1 (priority 2003, published 2007)
